Data set [1] is described as follows: Caco-2 cell permeability assay (A-B and B-A). The format is in vitro ADME. The conditions noted are these: human; for Papp A→B at 60 min, 10 μM: A-B direction; for Papp B→A at 40 min, 10 μM: B-A direction. The protocol:
The following procedure was used to determine the ability of a test compound to cross Caco-2 cells (human intestinal epithelial cells derived from a colorectal adenocarcinoma). The cells were seeded at 1×10^5 cells/cm^2 in 96-well Multiscreen™ plates (Millipore). Permeability assays were performed with the cells at days 21-25 post-seeding. Cells are typically used for 15 consecutive passages in culture.
This assay can be performed in either the apical to basolateral (A−B) or basolateral to apical (B−A) direction. The test compound was prepared at 10 μM in HBSS-MES (pH 6.5) or HBSS-HEPES (pH 7.4) with a final DMSO concentration of 1%. The working solution was then centrifuged and the supernatant added to the donor side. The assay plate was incubated at 37° C. with gentle shaking for 60 min or 40 min for the A−B or B−A assay, respectively. Samples were aliquoted from the donor side at time zero and the end point, and from the receiver side at the end point.
Reference compounds, propranolol (highly permeable), labetalol (moderately permeable), ranitidine (poorly permeable), and colchicine (P-glycoprotein substrate) were included in each assay.
Samples are analyzed by HPLC-MS/MS using selected reaction monitoring. The HPLC system consists of a binary LC pump with autosampler, a C-18 column, and a gradient.
The apparent permeability coefficient (Papp) of the test compound (Equation 2) and its recovery (Equation 3) are calculated as follows: […]
wherein A is the surface area of the cell monolayer (0.11 cm^2), C is concentration of the test compound expressed as peak area, D denotes donor, and R is receiver. “0”, “mid,” and “end” denote time at zero, mid-point, and end of the incubation, respectively. At is the incubation time. V is the volume of the donor or receiver.
This is most likely due to non-specific binding or degradation.

The target of the next data set is human Factor XIa (Homo sapiens, UniProt P03951). In words: Factor XIa enzyme inhibition assay (dose response, fluorogenic AMC substrate). Format: biochemical. The arrangement: Enzyme: Factor XIa. Conditions: purified enzyme; substrate 50 μM, enzyme 0.25 nM; read-out: hFXIa IC50. The protocol:
(§1) • Assay buffer: 20 mM Hepes, pH 7.4; 150 mM NaCl; 0.02% Tween 20 • Compounds: 10 mM stocks in DMSO • Substrate: 20 mM Glp-Pro-Arg-AMC, 25 mg/2.3 mL H2O (store at +4° C.) [Factor XIa, thrombin, and trypsin] • 20 mM Pro-Phe-Arg-AMC (Bachem I-1295), 25 mg/2.2 mL H2O or Boc-Leu-Gly-Arg-AMC (Bachem I-1105), 25 mg/2.07 mL H2O (store at +4° C.) [Factor Xa] • Enzyme: Factor XIa; 0.25 M in 50% glycerol (20 μg/mL) • Trypsin; 0.2 μM in 50% glycerol (4.8 μg/mL) • Thrombin; 0.2 μM in 50% glycerol (7.34 μg/mL) • Factor Xa; 0.2 μM in 50% glycerol (9.2 μg/mL)
(§2) • 1. Dilute the substrate to 100 μM in assay buffer (30 μL/6 mL). The enzyme is diluted to 0.5 nM just prior to use (12 L/6 mL for Factor XIa; 15 μL/6 mL for all of the rest.) • 2. Pipette 50 μL of substrate into each well of the 96 well (12×8) microtiter plate. (Column 1 is used as the 100% activity control and receives no compound, and Column 12 is the blank and receives no enzyme.) Add an additional 46 μL to column 2. • 3. Pipette 4 μL of each compound into the appropriate well in column 2 of the plate (unknowns assayed in triplicate, standard assayed in duplicate). The final compound concentration will be 1/50th of the stock. • 4. Serially two-fold dilute the compound by mixing the sample in column 2, removing 50 μL to the next well (column 3), mix and remove to column 4, etc. until column 11. After mixing column 11, remove 50 μL and discard. • 5. Pipette 50 μL of buffer into column 12. Initiate the reaction by adding 50 μL of enzyme solution to each well of columns 1-11 as rapidly as possible. • 6. Read the plate in a spectrophotometer (SpectraMax) at 30° C., wherein each well is measured every 60 s for 30 min. For Factor Xa assays, each well is measured every 1 min for a total of 60 min. • 7. For Factor XIa assays, the compounds are assayed, in duplicate, at 3 different starting concentrations, 20, 2, and 0.2 μM; 1:10, 1:100, and 1:1000 dilution of 10 mM stock or at 2, 0.2, and 0.02 μM; 1:100, 1:1000, and 1:10,000 dilution of 10 mM stock. Data for each concentration are combined for graphing and data fitting. • 8. Data can be used both for estimation of IC50 and for estimation of Kon.
Potential inhibitors of Factor XIa were evaluated using the following assay.
PyroGlu-Pro-Arg-7-methylaminocourin (AMC), available from CPC Scientific, Inc., is based on the substrate pyro-Glu-Pro-Arg-pNA (S-2366), available from Diapharma Group, Inc. (Columbus, Ohio), wherein the p-nitroanaline group is replaced with 7-methylaminocoumarin (AMC).
The final concentration of the substrate in the assay was 50 μM, and the final concentration of the enzyme was 0.25 nM. Inhibitors were tested by serial dilution over an appropriate range to yield a dose response curve for determination of the inhibitors' IC50 value. The assay mixture was read every minute for 30 minutes in order to generate progress curves. The plates were read in a Spectramax m5 Multimode Plate Reader (Molecular Devices LLC, Sunnyvale, Calif.). Dose response curves were fit to Equation 1 below in which A is the maximum inhibition, B is the minimum inhibition, C is the IC50, and D is the Hill coefficient.
Y=[(A−B)/(1+(X/C)^D)]+B (Equation 1)

The target of the next data set is T1, Factor Xa (Homo sapiens, UniProt P00742).
T1 construct: Factor Xa; 0.2 μM in 50% glycerol (9.2 μg/mL)
T1 sequence (P00742 235-488 limits assumed): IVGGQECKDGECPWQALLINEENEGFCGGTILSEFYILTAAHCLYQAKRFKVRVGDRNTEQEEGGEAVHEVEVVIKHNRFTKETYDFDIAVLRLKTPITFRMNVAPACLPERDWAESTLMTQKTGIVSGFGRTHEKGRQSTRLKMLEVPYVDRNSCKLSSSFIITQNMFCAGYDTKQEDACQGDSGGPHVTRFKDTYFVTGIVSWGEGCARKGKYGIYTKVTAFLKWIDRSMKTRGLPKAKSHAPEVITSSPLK
T1 sequence (P00742 41-179 partner limits assumed): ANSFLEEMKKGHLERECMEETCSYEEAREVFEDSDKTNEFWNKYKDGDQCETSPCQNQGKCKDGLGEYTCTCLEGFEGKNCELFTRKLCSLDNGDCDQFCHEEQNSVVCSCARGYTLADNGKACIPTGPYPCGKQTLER
In words: Dose response assay for protease inhibitors: Factor Xa. The conditions noted are these: ratio versus Factor XIa. The format is biochemical. The protocol:
as §1, §2

Another data set has as its target T2, Thrombin (Homo sapiens, UniProt P00734).
T2 construct: Thrombin; 0.2 μM in 50% glycerol (7.34 μg/mL)
In words: Dose response assay for protease inhibitors: thrombin. The format is biochemical. The conditions noted are these: ratio versus Factor XIa. The protocol:
as §1, §2

The structures appear in SMILES notation. pIC50: −log10 of the molar value. A value given as a limit tells only on which side of the number the result lay.

human Factor XIa, sequence (P03951 388-625 limits assumed): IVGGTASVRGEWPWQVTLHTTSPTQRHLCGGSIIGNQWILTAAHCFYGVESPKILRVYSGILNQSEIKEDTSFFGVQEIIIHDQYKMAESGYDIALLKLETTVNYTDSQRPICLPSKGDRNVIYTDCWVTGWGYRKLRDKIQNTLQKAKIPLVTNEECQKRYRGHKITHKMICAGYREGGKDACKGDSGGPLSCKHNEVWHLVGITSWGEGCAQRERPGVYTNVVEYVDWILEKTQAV
human Factor XIa, sequence (P03951 19-387 partner limits assumed): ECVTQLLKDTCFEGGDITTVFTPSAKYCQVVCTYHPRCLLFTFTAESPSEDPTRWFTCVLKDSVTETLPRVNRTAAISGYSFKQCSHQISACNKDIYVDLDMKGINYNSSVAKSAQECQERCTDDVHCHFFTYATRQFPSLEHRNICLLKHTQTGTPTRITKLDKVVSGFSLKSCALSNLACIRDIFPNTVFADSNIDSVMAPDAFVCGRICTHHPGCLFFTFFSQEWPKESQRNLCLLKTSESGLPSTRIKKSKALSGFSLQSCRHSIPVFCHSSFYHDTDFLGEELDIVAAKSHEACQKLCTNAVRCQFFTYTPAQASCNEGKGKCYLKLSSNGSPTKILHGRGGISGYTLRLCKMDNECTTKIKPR

`CCN(C(=O)[C@@H]1[C@@H](Cc2ccnc(N)c2)C(=O)N1C(=O)N[C@@H](C1CCCCC1)C(F)(F)F)c1ncccn1` [Compound 38]: in data set [1], the apical-to-basolateral permeability (Papp A→B) at 60 min, 10 μM was ≤ 10 ×10⁻⁶ cm/s and the Papp B→A at 40 min, 10 μM is ≤ 10 ×10⁻⁶ cm/s. Moreover, the pIC50 on human Factor XIa is > 8.00.

`CC[C@@H](NC(=O)N1C(=O)[C@H](Cc2ccnc(N)c2)[C@H]1C(=O)N(C)c1cc(Cl)cc(Cl)c1)C1CCCCC1` [Compound 51]: in data set [1], the Papp A→B at 60 min, 10 μM was ≤ 10 ×10⁻⁶ cm/s and the Papp B→A at 40 min, 10 μM is ≤ 10 ×10⁻⁶ cm/s. In addition, on human Factor XIa, the pIC50 is > 8.00. As for `CCN(C(=O)[C@@H]1[C@@H](Cc2ccnc(N)c2)C(=O)N1C(=O)N[C@@H](C1CCCCC1)C1CC1)c1ncccn1` [Compound 54], in data set [1], the apical-to-basolateral permeability (Papp A→B) at 60 min, 10 μM is 11 to 30 ×10⁻⁶ cm/s and the basolateral-to-apical permeability (Papp B→A) at 40 min, 10 μM is ≤ 10 ×10⁻⁶ cm/s. The negative logarithm of the IC50 (pIC50) at human Factor XIa is > 8.00. For `CN(C(=O)[C@@H]1[C@@H](Cc2ccnc(N)c2)C(=O)N1C(=O)N[C@@H](C1CC1)C(F)(F)F)c1ccccc1` [Compound 70], the “FXa/FXIa (selectivity ratio)” value on Factor Xa was “I (“I” indicates >500)”. In addition, the “Ratio: Thrombin/FXIa” value at Thrombin was “G (“G” indicates 1-100)”. In data set [1], the Papp A→B at 60 min, 10 μM lay within 11 to 30 ×10⁻⁶ cm/s and the Papp B→A at 40 min, 10 μM lay within 31 to 50 ×10⁻⁶ cm/s. Besides, the pIC50 on human Factor XIa is 7.00 to 8.00. In the case of `CCN(C(=O)[C@@H]1[C@@H](Cc2ccnc(N)c2)C(=O)N1C(=O)N[C@@H](C1CC1)C(F)(F)F)c1ncccn1` [Compound 79], the “FXa/FXIa (selectivity ratio)” value on Factor Xa is “H (“H” indicates 101-1000)”. Also, the “Ratio: Thrombin/FXIa” value at Thrombin is given as “H (“H” indicates 101-1000)”. The negative logarithm of the IC50 (pIC50) at human Factor XIa was 7.00 to 8.00. Regarding `CC[C@@H](NC(=O)N1C(=O)[C@H](Cc2ccnc(N)c2)[C@H]1C(=O)N(C)c1ccncc1)c1ccccc1C` [Compound 96], at Factor Xa, the “FXa/FXIa (selectivity ratio)” value is reported as “I (“I” indicates >500)”. For the same compound, at human Factor XIa, the negative logarithm of the IC50 (pIC50) was 7.00 to 8.00. For the compound `CC[C@@H](NC(=O)N1C(=O)[C@H](Cc2ccnc(NC)c2)[C@H]1C(=O)N(C)c1ccncc1)c1cccc(Cl)c1` [Compound 109], the pIC50 on human Factor XIa was > 8.00.

Turning to `CC[C@@H](NC(=O)N1C(=O)[C@H](Cc2ccnc(N)c2)[C@H]1C(=O)N(C)c1ccncc1)c1cc(F)ccc1F` [Compound 110], the pIC50 at human Factor XIa was > 8.00. `CC[C@@H](NC(=O)N1C(=O)[C@H](Cc2cc(C)nc(N)c2)[C@H]1C(=O)N(C)c1ccncc1)c1cccc(Cl)c1` [Compound 111]: the negative-log IC50 (pIC50) on human Factor XIa was > 8.00. In the case of `CC[C@@H](NC(=O)N1C(=O)[C@H](Cc2cc(C)nc(N)c2)[C@H]1C(=O)N(C)c1ccncc1)C1CCCCC1` [Compound 114], the pIC50 on human Factor XIa was > 8.00.

For `CC[C@@H](NC(=O)N1C(=O)[C@H](Cc2cc(C)nc(N)c2)[C@H]1C(=O)N(C)c1ccncc1)c1ccccc1` [Compound 122], the pIC50 at human Factor XIa was > 8.00. Same read-out and setting: the same measure for `CC[C@@H](NC(=O)N1C(=O)[C@H](Cc2ccnc(N)c2)[C@H]1C(=O)N(C)c1cc(C)nc(C)c1)c1cccc(Cl)c1` [Compound 123]: 7.00 to 8.00. In the case of `CC[C@@H](NC(=O)N1C(=O)[C@H](Cc2ccnc(N)c2)[C@H]1C(=O)N(C)c1ccncc1)c1cccc(Cl)c1Cl` [Compound 125], the negative-log IC50 (pIC50) on human Factor XIa was > 8.00. For the compound `CCc1cccc([C@@H](CC)NC(=O)N2C(=O)[C@H](Cc3ccnc(N)c3)[C@H]2C(=O)N(C)c2ccncc2)c1` [Compound 126], the pIC50 at human Factor XIa is > 8.00. For the compound `CC[C@@H](NC(=O)N1C(=O)[C@H](Cc2ccnc(N)c2)[C@H]1C(=O)N(C)c1ccnc(C)c1)c1cccc(C)c1` [Compound 128], on human Factor XIa, the negative logarithm of the IC50 (pIC50) was > 8.00.

In the case of `CC[C@@H](NC(=O)N1C(=O)[C@H](Cc2ccnc(N)c2)[C@H]1C(=O)N(C)c1cc(C)nc(C)c1)c1cccc(C)c1` [Compound 129], the pIC50 at human Factor XIa is 7.00 to 8.00.

On to `CC[C@@H](NC(=O)N1C(=O)[C@H](Cc2ccnc(N)c2)[C@H]1C(=O)N(C)c1ccncc1)c1cccc(F)c1F` [Compound 130], for which the negative logarithm of the IC50 (pIC50) at human Factor XIa is 7.00 to 8.00.

Regarding `CC[C@@H](NC(=O)N1C(=O)[C@H](Cc2cc(N)ncc2F)[C@H]1C(=O)N(C)c1ccncc1)c1cccc(Cl)c1` [Compound 131], the negative-log IC50 (pIC50) at human Factor XIa was 6.00 to 7.00. The same measure, in the same setting: next, `CC[C@@H](NC(=O)N1C(=O)[C@H](Cc2cc(C)nc(N)c2)[C@H]1C(=O)N(C)c1ccccc1)c1ccc(C)nc1` [Compound 132]: 7.00 to 8.00; `CC[C@@H](NC(=O)N1C(=O)[C@H](Cc2cc(C)nc(N)c2)[C@H]1C(=O)N(C)c1ccncc1)c1ccc(C)nc1` [Compound 133]: 7.00 to 8.00; `CC[C@@H](NC(=O)N1C(=O)[C@H](Cc2ccnc(N)c2)[C@H]1C(=O)N(C)c1ccccc1)c1ccc(C)nc1` [Compound 134]: > 8.00. Regarding `CC[C@@H](NC(=O)N1C(=O)[C@H](Cc2ccnc(N)c2)[C@H]1C(=O)N(C)c1cccc(F)c1)c1ccc(C)nc1` [Compound 136], at human Factor XIa, the negative-log IC50 (pIC50) was > 8.00. Still for that read-out and setting: the same measure for `CN(C(=O)[C@@H]1[C@@H](Cc2ccnc(N)c2)C(=O)N1C(=O)NCc1cccc(Cl)c1)c1ccccc1` [Compound 137]: 7.00 to 8.00; for `CN(C(=O)[C@@H]1[C@@H](Cc2ccnc(N)c2)C(=O)N1C(=O)NCc1cccc(Cl)c1)c1ccncc1` [Compound 138]: > 8.00. On the same count and under the same terms, next, `CC[C@@H](NC(=O)N1C(=O)[C@H](Cc2ccnc(N(C)C)c2)[C@H]1C(=O)N(C)c1ccncc1)c1ccccc1Cl` [Compound 139]: 6.00 to 7.00. Still for that read-out and setting: next, `CC[C@@H](NC(=O)N1C(=O)[C@H](Cc2ccnc(N(C)C)c2)[C@H]1C(=O)N(C)c1ccncc1)c1cccc(Cl)c1` [Compound 140]: 6.00 to 7.00; `Nc1cc(C[C@H]2C(=O)N(C(=O)N[C@@H](C3CCCCC3)C(F)(F)F)[C@@H]2C(=O)Nc2ccc(Cl)cc2)ccn1` [Example 9]: 6.00 to 7.00. On to `COc1cccc(N(C)C(=O)[C@@H]2[C@@H](Cc3ccnc(N)c3)C(=O)N2C(=O)N[C@@H](C2CCCCC2)C(F)(F)F)c1` [Example 12], for which the pIC50 on human Factor XIa was 7.00 to 8.00.

Values taken from patent publication US20190315711A1 (eXIthera Pharmaceuticals, Inc., priority 2016, published 2019).
